Reference: US20230312587A1, “PTERIDINONE COMPOUNDS AND USES THEREOF” (Vertex Pharmaceutical Incorporated, priority 2018, published 2023)

Each compound was assayed on β-catenin-TCF-mediated reporter transcription activity in Colo 205 cells (assay: Colo 205 reporter assay (TCF/LEF luciferase)). Details: Colo 205 TCF/LEF luciferase reporter, five hours after addition of compound; read-out: TCF reporter Colo205 IC50.
Assay type: cell-based
Summary of the method: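 Luciferase signal from a TCF/LEF-driven reporter, stably integrated in Colo 205 colon cancer cells, was measured 5 h after compound addition.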
In the case of “(7R)-5,7,8-triethyl-7-methyl-2-(((1-(3,4,5-trifluorobenzyl)-1H-pyrazol-4-yl)methyl)amino)-7,8-dihydropteridin-6(5H)-one [Compound 235]”, the IC50 is reported as < 300 nM.
`COCC1(C)C(=O)Nc2c(C)nc(NCc3cnn(Cc4cc(C(F)(F)F)nn4C)c3)nc2N1C` (stereo not drawn) [Compound 709, 7-(methoxymethyl)-4,7,8-trimethyl-2-(((1-((1-methyl-3-(trifluoromethyl)-1H-pyrazol-5-yl)methyl)-1H-pyrazol-4-yl)methyl)amino)-7,8-dihydropteridin-6(5H)-one] showed an IC50 of 300 to 1000 nM.
Work on `COCC1(C)C(=O)Nc2c(C)nc(N[C@H]3C[C@H](Oc4cnc(C(F)(F)F)nc4)C3)nc2N1C` (relative stereo) [Compound 710, 7-(methoxymethyl)-4,7,8-trimethyl-2-((trans-3-((2-(trifluoromethyl)pyrimidin-5-yl)oxy)cyclobutyl)amino)-7,8-dihydropteridin-6(5H)-one] yielded an IC50 of 1000 to 5000 nM.

Same assay, conditions: Homo sapiens, COLO 205, 5 h, Colo 205 TCF/LEF luciferase reporter, five hours after addition of compound; read-out: TCF reporter Colo205 IC50
Work on `Cc1nc(Cn2cc(CNc3nc(C)c4c(n3)N(C)[C@@H](C)C(=O)N4)cn2)c(C)o1` [Compound 193, (7S)-2-(((1-((2,5-dimethyloxazol-4-yl)methyl)-1H-pyrazol-4-yl)methyl)amino)-4,7,8-trimethyl-7,8-dihydropteridin-6(5H)-one] yielded an IC50 of 300 to 1000 nM.
In the case of `Cc1nc(N[C@H]2C[C@@H](COc3ccnn3C)C2)nc2c1NC(=O)[C@H](C(C)C)N2C` [Compound 693, (S)-7-isopropyl-4,8-dimethyl-2-((cis-3-(((1-methyl-1H-pyrazol-5-yl)oxy)methyl)cyclobutyl)amino)-7,8-dihydropteridin-6(5H)-one], the IC50 is reported as ≥ 5000 nM.
`Cc1nc(N[C@H]2C[C@H](NC(=O)Cc3cc(F)c(F)c(F)c3)C2)nc2c1NC(=O)[C@H](C(C)C)N2C` [Compound 515, N-(trans-3-(((S)-7-isopropyl-4,8-dimethyl-6-oxo-5,6,7,8-tetrahydropteridin-2-yl)amino)cyclobutyl)-2-(3,4,5-trifluorophenyl)acetamide] was tested, and the IC50 was < 300 nM.
`Cc1nc(NC2CN(C(=O)c3cocn3)C2)nc2c1NC(=O)[C@H](C(C)C)N2C` [Compound 605, (S)-7-isopropyl-4,8-dimethyl-2-((1-(oxazole-4-carbonyl)azetidin-3-yl)amino)-7,8-dihydropteridin-6(5H)-one] was tested, and the IC50 was ≥ 5000 nM.
In the case of `Cc1nc(N[C@H]2CCc3c2cnn3Cc2ccc(C(F)(F)F)nc2)nc2c1NC(=O)[C@H](C)N2C` [Compound 624, (7S)-4,7,8-trimethyl-2-(((S)-1-((6-(trifluoromethyl)pyridin-3-yl)methyl)-1,4,5,6-tetrahydrocyclopenta[c]pyrazol-4-yl)amino)-7,8-dihydropteridin-6(5H)-one], the IC50 is reported as ≥ 5000 nM.
`C[C@H]1C(=O)Nc2cnc(NCc3cnn(CCc4ccc(F)cc4F)c3)nc2N1C` [Compound 119, (7S)-2-(((1-(2,4-difluorophenethyl)-1H-pyrazol-4-yl)methyl)amino)-7,8-dimethyl-7,8-dihydropteridin-6(5H)-one] showed an IC50 of 1000 to 5000 nM.
Work on `Cc1nc(N[C@H]2C[C@@H](COc3ccc4c(c3)OCO4)C2)nc2c1NC(=O)[C@H](C(C)C)N2C` [Compound 580, (S)-2-((cis-3-((benzo[d][1,3]dioxol-5-yloxy)methyl)cyclobutyl)amino)-7-isopropyl-4,8-dimethyl-7,8-dihydropteridin-6(5H)-one] yielded an IC50 of 300 to 1000 nM.
Compound `Cc1nc(N[C@H]2CCc3c2cnn3Cc2ccc(C(F)(F)F)nc2)nc2c1NC(=O)[C@H](C(C)C)N2C` [Compound 519, (S)-7-isopropyl-4,8-dimethyl-2-(((S)-1-((6-(trifluoromethyl)pyridin-3-yl)methyl)-1,4,5,6-tetrahydrocyclopenta[c]pyrazol-4-yl)amino)-7,8-dihydropteridin-6(5H)-one] has an IC50 of 1000 to 5000 nM.
`CO[C@H](C)[C@H]1C(=O)N(C)c2cnc(NCc3cnn(Cc4ccc(F)cc4)c3)nc2N1C` [Compound 20, (7S)-2-(((1-(4-fluorobenzyl)-1H-pyrazol-4-yl)methyl)amino)-7-((R)-1-methoxyethyl)-5,8-dimethyl-7,8-dihydropteridin-6(5H)-one] was tested, and the IC50 was 300 to 1000 nM.
In the case of `CC[C@H]1C(=O)Nc2c(C)nc(NCc3cnn(Cc4ccc(F)nc4)c3)nc2N1C` [Compound 389, (7S)-7-Ethyl-2-(((1-((6-fluoropyridin-3-yl)methyl)-1H-pyrazol-4-yl)methyl)amino)-4,8-dimethyl-7,8-dihydropteridin-6(5H)-one], the IC50 is reported as < 300 nM.
`Cc1nc(N[C@H]2C[C@@H](NC(=O)Nc3cc(F)c(F)cc3F)C2)nc2c1NC(=O)[C@H](C)N2C` [Compound 477, 1-(2,4,5-trifluorophenyl)-3-(cis-3-(((S)-4,7,8-trimethyl-6-oxo-5,6,7,8-tetrahydropteridin-2-yl)amino)cyclobutyl)urea] was tested, and the IC50 was < 300 nM.
For `Cc1nc(NCc2cnn(Cc3ccnc(O)c3)c2)nc2c1NC(=O)[C@H](C)N2C` [Compound 202, (7S)-2-(((1-((2-hydroxypyridin-4-yl)methyl)-1H-pyrazol-4-yl)methyl)amino)-4,7,8-trimethyl-7,8-dihydropteridin-6(5H)-one], the IC50 was ≥ 5000 nM.
In the case of `Cc1nc(NC2CN(C(=O)c3ccc(OC(F)(F)F)nc3)C2)nc2c1NC(=O)[C@H](C(C)C)N2C` [Compound 607, (S)-7-isopropyl-4,8-dimethyl-2-((1-(6-(trifluoromethoxy)nicotinoyl)azetidin-3-yl)amino)-7,8-dihydropteridin-6(5H)-one], the IC50 is reported as < 300 nM.
In the case of `COc1cc(F)ccc1CN1CC(Nc2nc(C)c3c(n2)N(C)[C@@H](C(C)C)C(=O)N3)C1` [Compound 603, (S)-2-((1-(4-fluoro-2-methoxybenzyl)azetidin-3-yl)amino)-7-isopropyl-4,8-dimethyl-7,8-dihydropteridin-6(5H)-one], the IC50 is reported as 300 to 1000 nM.
In the case of `Cc1nc(N[C@@H]2CCN(C(=O)c3cc(F)c(F)c(F)c3)C2)nc2c1NC(=O)[C@H](C(C)C)N2C` [Compound I-541], the IC50 is reported as 300 to 1000 nM.
`Cc1nc(N[C@H]2C[C@@H](Nc3ccc(OC(F)(F)F)cn3)C2)nc2c1NC(=O)[C@H](C)N2C` [Compound 577, (S)-4,7,8-trimethyl-2-((cis-3-((5-(trifluoromethoxy)pyridin-2-yl)amino)cyclobutyl)amino)-7,8-dihydropteridin-6(5H)-one] gave an IC50 of 300 to 1000 nM.
Compound `Cc1nc(N[C@H]2C[C@H](Nc3nccc(C(F)(F)F)n3)C2)nc2c1NC(=O)[C@H](C(C)C)N2C` [Compound 529, (S)-7-isopropyl-4,8-dimethyl-2-((trans-3-((4-(trifluoromethyl)pyrimidin-2-yl)amino)cyclobutyl)amino)-7,8-dihydropteridin-6(5H)-one] has an IC50 of 1000 to 5000 nM.
For `Cc1nc(NCc2cnn(C3CCN(c4cc(F)cc(F)c4)CC3)c2)nc2c1NC(=O)[C@H](C)N2C` [Compound 179, (7S)-2-(((1-(1-(3,5-difluorophenyl)piperidin-4-yl)-1H-pyrazol-4-yl)methyl)amino)-4,7,8-trimethyl-7,8-dihydropteridin-6(5H)-one], the IC50 was < 300 nM.
`Cc1nc(NCc2cnn(CCc3cc(F)cc(F)c3)c2)nc2c1NC(=O)[C@H](C)N2C` [Compound 107, (7S)-2-(((1-(3,5-difluorophenethyl)-1H-pyrazol-4-yl)methyl)amino)-4,7,8-trimethyl-7,8-dihydropteridin-6(5H)-one] was tested, and the IC50 was < 300 nM.
`CCN1C(=O)C(C)(C)N(CC)c2nc(NCc3cnn(Cc4cc(F)c(F)c(F)c4)c3)ncc21` [Compound 231, 5,8-diethyl-7,7-dimethyl-2-(((1-(3,4,5-trifluorobenzyl)-1H-pyrazol-4-yl)methyl)amino)-7,8-dihydropteridin-6(5H)-one] was tested, and the IC50 was < 300 nM.
For `Cc1nc(NCc2cnn([C@@H]3CCN(C4CCC(F)(F)CC4)C3)c2)nc2c1NC(=O)[C@H](C)N2C` [Compound 127, (7S)-2-(((1-((R)-1-(4,4-difluorocyclohexyl)pyrrolidin-3-yl)-1H-pyrazol-4-yl)methyl)amino)-4,7,8-trimethyl-7,8-dihydropteridin-6(5H)-one], the IC50 was 300 to 1000 nM.
`Cc1nc(N[C@H]2C[C@@H](Oc3cnc(C(F)(F)F)nc3)C2)nc2c1NC(=O)[C@H](C(C)C)N2C` [Compound 644, (S)-7-isopropyl-4,8-dimethyl-2-((cis-3-((2-(trifluoromethyl)pyrimidin-5-yl)oxy)cyclobutyl)amino)-7,8-dihydropteridin-6(5H)-one] was tested, and the IC50 was < 300 nM.
Compound `COc1ccc(O[C@H]2C[C@H](Nc3nc(C)c4c(n3)N(C)[C@@H](C)C(=O)N4)C2)c(F)c1` [Compound 354, (7S)-2-((trans-3-(2-fluoro-4-methoxyphenoxy)cyclobutyl)amino)-4,7,8-trimethyl-7,8-dihydropteridin-6(5H)-one] has an IC50 of 1000 to 5000 nM.
For `COC1(C2C(=O)Nc3c(C)nc(NCc4cnn(Cc5ccc(C(F)(F)F)nc5)c4)nc3N2C)CC1` (stereo not drawn) [Compound 665, 7-(1-methoxycyclopropyl)-4,8-dimethyl-2-(((1-((6-(trifluoromethyl)pyridin-3-yl)methyl)-1H-pyrazol-4-yl)methyl)amino)-7,8-dihydropteridin-6(5H)-one], the IC50 was 300 to 1000 nM.
`Cc1nc(N[C@H]2C[C@H](Oc3ccc(OC(F)F)nc3)C2)nc2c1NC(=O)[C@H](C)N2C` [Compound 361, (7S)-2-((trans-3-((6-(difluoromethoxy)pyridin-3-yl)oxy)cyclobutyl)amino)-4,7,8-trimethyl-7,8-dihydropteridin-6(5H)-one] was tested, and the IC50 was < 300 nM.
For `C[C@H]1C(=O)Nc2cnc(NCc3cnn(Cc4ccc(F)cc4)c3)nc2N1C` [Compound 41, (7S)-2-(((1-(4-fluorobenzyl)-1H-pyrazol-4-yl)methyl)amino)-7,8-dimethyl-7,8-dihydropteridin-6(5H)-one], the IC50 was 300 to 1000 nM.

Same assay, conditions: Homo sapiens, COLO 205, 5 h, Colo 205 cells with stably transfected TCF/LEF luciferase reporter; five hours after addition of compound; read-out: TCF reporter Colo205
`Cc1nc(N(Cc2cnn(Cc3ccc(C(F)(F)F)nc3)c2)C(=O)OC(C)OC(=O)C(C)C)nc2c1NC(=O)[C@H](C)N2C` (stereo partly drawn) [Compound 408, 1-((((1-((6-(trifluoromethyl)pyridin-3-yl)methyl)-1H-pyrazol-4-yl)methyl)((7S)-4,7,8-trimethyl-6-oxo-5,6,7,8-tetrahydropteridin-2-yl)carbamoyl)oxy)ethyl isobutyrate] was tested, and the IC50 was < 300 nM.
